Experimental data reported in patent US8507506B2, “Theophylline derivative inhibits osteoporosis” (Kaohsiung Medical University, priority 2011, dated 2013).

Legend:
Type in all cases: cell-based
[1] = tested on: c-Fos protein in RAW264.7 cells; assay: Western blot, expression of c-Fos induced by RANKL; settings: 7.5 μM and 10 μM, RANKL 24 hours, FIG. 12
Procedure: The proteins were collected by scraping and were centrifuged (13,000 rpm, 4° C., 30 minutes). The supernatant was stored in an eppendorf in −80° C. • c) Concentrations of the proteins were examined by Bio-Red DC Protein Assay. After knowing the concentrations, the proteins were diluted to specific concentrations by adding ddH2O. One forth volume of the diluted proteins of sample buffer was added into the diluted proteins and was put in boiled water for 5 min and then was chilled on ice for 5 minutes. After short time centrifugation, the diluted proteins could be injected into wells of a gel. The gel was run at 100 V for 10 minutes until the proteins were driven to the intersection between a loading gel and a running gel. Then, the voltage was swopped to 200 V for 40 minutes. • d) A PVDF membrane was immersed in Methanol for 2 minutes. After two washes in ddH2O, the membrane was immersed in transfer buffer for 15 minutes. A SDS-PAGE was put on the membrane, and wet paper was flanked them. The proteins were transferred to the PVDF membrane using a semi-dry transfer at 20 V for 30 minutes. • e) The band of the PVDF membrane was trimmed and was added by suitable amount of blocking buffer (5% skim milk in washing buffer) and then was shaken for 1 hour in room temperature to block non specific bindings. Then, the band was covered by a diluted 1° antibody overnight in 4° C. […]

[2] = tested on: ERK phosphorylation in RAW264.7 cells; assay: Western blot, phosphorylation of ERK induced by RANKL; settings: 7.5 μM and 10 μM, RANKL 15 minutes, FIG. 9
Procedure: (§1) MAP kinases including ERK, JNK and p38 are stimulated by RANKL to be phosphorylized and further influence the down-stream key transcription factors which induce the differentiation of osteoclast-like cells such as c-Fos, NFATc1, etc. Before estimating the drug effect, 10 ng/ml RANKL are used to induce the phosphorylation of ERK, JNK and p38 at different time points. […] It is shown that KMUP-1 can reduce the activation of MAP kinases induced by RANKL. […] The proteins were collected by scraping and were centrifuged (13,000 rpm, 4° C., 30 minutes). The supernatant was stored in an eppendorf in −80° C. • c) Concentrations of the proteins were examined by Bio-Red DC Protein Assay. After knowing the concentrations, the proteins were diluted to specific concentrations by adding ddH2O. One forth volume of the diluted proteins of sample buffer was added into the diluted proteins and was put in boiled water for 5 min and then was chilled on ice for 5 minutes. After short time centrifugation, the diluted proteins could be injected into wells of a gel. The gel was run at 100 V for 10 minutes until the proteins were driven to the intersection between a loading gel and a running gel. Then, the voltage was swopped to 200 V for 40 minutes. • d) A PVDF membrane was immersed in Methanol for 2 minutes. After two washes in ddH2O, the membrane was immersed in transfer buffer for 15 minutes. […]

[3] = tested on: p38 phosphorylation in RAW264.7 cells; assay: Western blot, phosphorylation of p38 induced by RANKL; settings: 7.5 μM and 10 μM, RANKL 15 minutes, FIG. 11
Procedure: as §1

[4] = tested on: IκBα in cytoplasm of RAW264.7 cells; assay: Western blot, IκBα phosphorylation and hydrolysis induced by RANKL; settings: KMUP-1 in advance 24 hours, RANKL 30 minutes, FIG. 8(A)
Procedure: IκBα which originally binds with NF-κB to inhibit its activity in cytoplasm is stimulated by RANKL to be phosphorylized and be hydrolyzed after separating from NF-κB. Then, the free NF-κB transfers into a cell nucleus to play a role as a transcription factor. According to the experimental result, compared with the control group, in the group induced by RANKL for 30 minutes, the IκBα in the cytoplasm is obviously phosphorylized and hydrolyzed. […] According to the result, KMUP-1 can inhibit NF-κB activation induced by RANKL. Nuclear proteins were extracted according to the instructions of NE-PER kit. 2.5×10^6 cells were plated per well in 24-well plates. […] Subsequently, the cells were added by 5.5 μ[…] and shaken for 5 seconds and then put on ice for 1 minute. After that, the cells were shaken again for 5 seconds and centrifuged (10,000 rpm, 4° C., 5 minutes). Cytoplasm and Nuclei could be separated by this process, and the supernatant was cytoplasmic proteins, and the pallet was nuclei. The supernatant was stored in an eppendorf in -80° C. b) Extraction of Nuclear Proteins The nuclear pallet was added by 500 μl PBS and centrifuged (10,000 rpm, 4° C., 5 minutes), and the supernatant was discarded. The pallet could be washed by this process and prevented contamination. […]

With `Cn1c(=O)c2c(ncn2CCN2CCN(c3ccccc3Cl)CC2)n(C)c1=O` [KMUP-1, 7-[2-[4-(2-Chlorophenyl)piperazin-1-yl]ethyl] theophylline] the “expression of c-Fos induced by RANKL” value [1] was “can efficiently inhibit it”, the “phosphorylation of ERK induced by RANKL” value [2] was “can efficiently inhibit the phosphorylation of ERK, JNK and p38 induced by RANKL” and the “phosphorylation of p38 induced by RANKL” value [3] was “can efficiently inhibit the phosphorylation of ERK, JNK and p38 induced by RANKL”. The “phosphorylation and hydrolysis of IκBα in cytoplasm induced by RANKL” value [4] was “can inhibit the effect of RANKL”.
